Laboratory results published in patent publication US8106055B2, “Substituted amide compounds” (Gruenenthal GmbH, priority 2007, dated 2012).

Key:
[1] = target: T1, bradykinin 1 receptor (B1R) of the rat (Rattus norvegicus, UniProt P97583); experiment: Functional investigation on the rat bradykinin 1 receptor (B1R), Ca2+ FLIPR assay in CHO K1 rB1R cells; type: cell-based; settings: test substance 10 μM, Ca2+ FLIPR, CHO K1 rB1R cells; for inhibition at 10 µM: CHO-K1, B1R antagonism rat, read-out: B1R Ant. r [10 μM] % Inhibition; for B1R Ant. r [10 μM] % Inhibition: B1R antagonism rat
T1 construct: expressed in transfected cells; host or cells: CHO K1 cells
T1 sequence (P97583 1-337): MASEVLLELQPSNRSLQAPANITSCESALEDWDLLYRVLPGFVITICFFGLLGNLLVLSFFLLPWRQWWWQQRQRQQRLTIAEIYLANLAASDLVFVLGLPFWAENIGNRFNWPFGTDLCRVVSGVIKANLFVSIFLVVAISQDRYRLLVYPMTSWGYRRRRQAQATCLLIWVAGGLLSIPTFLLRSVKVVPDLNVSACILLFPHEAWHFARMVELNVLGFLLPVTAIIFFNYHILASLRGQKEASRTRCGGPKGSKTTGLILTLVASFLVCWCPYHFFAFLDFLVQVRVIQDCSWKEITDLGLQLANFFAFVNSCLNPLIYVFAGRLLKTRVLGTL
Method in brief: (§1)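 Peak Ca2+-dependent fluorescence in B1R-transfected CHO K1 cells measures antagonism of an EC80 agonist challenge given 10-20 min after compound. Agonist is Lys-Des-Arg9-bradykinin for human, Des-Arg9-bradykinin for rat receptor.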

[2] = target: T2, human bradykinin 1 receptor (B1R) (Homo sapiens, UniProt P46663); experiment: Functional investigation on the human bradykinin 1 receptor (B1R), Ca2+ FLIPR assay in CHO K1 hB1R cells; type: cell-based; settings: test substance 10 μM, Ca2+ FLIPR, CHO K1 hB1R cells; for inhibition at 10 µM: CHO-K1, B1R antagonism human, read-out: B1R Ant. h [10 μM] % Inhibition; for B1R Ant. h [10 μM] % Inhibition: B1R antagonism human
T2 construct: expressed in transfected cells; host or cells: CHO K1 cells
T2 sequence (P46663 1-353): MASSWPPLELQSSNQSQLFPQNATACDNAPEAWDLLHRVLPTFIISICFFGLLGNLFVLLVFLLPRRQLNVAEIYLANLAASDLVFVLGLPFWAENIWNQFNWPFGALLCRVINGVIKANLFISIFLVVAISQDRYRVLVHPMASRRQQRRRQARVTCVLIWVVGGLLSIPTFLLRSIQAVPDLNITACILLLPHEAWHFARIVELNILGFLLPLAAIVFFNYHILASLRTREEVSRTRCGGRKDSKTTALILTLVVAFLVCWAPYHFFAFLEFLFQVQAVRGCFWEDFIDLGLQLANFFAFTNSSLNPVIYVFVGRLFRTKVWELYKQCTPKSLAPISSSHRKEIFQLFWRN
Method in brief: as §1

Row | Compound | inhibition at 10 µM [1] [%] | inhibition at 10 µM [2] [%] | B1R Ant. r [10 μM] % Inhibition [1] [%] | B1R Ant. h [10 μM] % Inhibition [2] [%]
1 | COc1cc(C)c(S(=O)(=O)N2CCC(OCC(=O)NCC3CCC(C(c4cccs4)N(C)C)CC3)CC2)c(C)c1C (stereo not drawn) [Example 104, N-((4-((dimethylamino)(thiophen-2-yl)methyl)cyclohexyl)methyl)-2-(1-(4-methoxy-2,3,6-trimethylphenylsulfonyl)piperidin-4-yloxy)acetamide] | -10 | 24 |  | 
2 | CN(C)C(CCc1ccccc1)C1CCC(CNC(=O)COCCN(C)S(=O)(=O)c2cccc(C(F)(F)F)c2)CC1 (stereo not drawn) [Example 556] |  |  | 20 | 82
3 | COc1ccc(S(=O)(=O)N(C)CCOCC(=O)NC2CCC(C(c3ccc(F)cc3)N(C)C)CC2)cc1 (stereo not drawn) [Example 549] |  |  | 40 | 13
4 | COc1cc(C)c(S(=O)(=O)N(CCOCC(=O)NCC2CCC(C(CCc3ccccc3)N(C)C)CC2)Cc2ccccc2)c(C)c1C (stereo not drawn) [Example 562] |  |  | 23 | 91
5 | COc1ccc(S(=O)(=O)N2CCCCC2COCC(=O)NCC2CCC(C(CCc3ccccc3)N(C)C)CC2)c(OC)c1 (stereo not drawn) [Example 486] |  |  | 20 | 28
6 | CN(C)C(CCc1ccccc1)C1CCC(CNC(=O)COCCN(C)S(=O)(=O)c2c(Cl)cccc2Cl)CC1 (stereo not drawn) [Example 580] |  |  | 44 | 95
7 | CN(C)C(c1ccccc1)C1CCC(NC(=O)COCCN(C)S(=O)(=O)c2c(Cl)cccc2Cl)CC1 (stereo not drawn) [Example 135, 2-(2-(2,6-dichloro-N-methylphenylsulfonamido)ethoxy)-N-(4-((dimethylamino)(phenyl)methyl)cyclohexyl)acetamide] | 29 | 79 |  | 
8 | COc1ccc(S(=O)(=O)N2CCCCC2COCC(=O)NCC2CCC(C(c3ccccc3)N(C)C)CC2)c(OC)c1 (stereo not drawn) [Example 106, 2-((1-(2,4-dimethoxyphenylsulfonyl)piperidin-2-yl)methoxy)-N-((4-((dimethylamino)(phenyl)methyl)cyclohexyl)methyl)acetamide] | 13 | 4 |  | 
9 | CN(C)C(c1ccc(Cl)cc1)C1CCC(CCNC(=O)COCCN(C)S(=O)(=O)c2ccc(OC(F)(F)F)cc2)CC1 (stereo not drawn) [Example 575] |  |  | 26 | −4
10 | CN(C)C(CCc1ccccc1)C1CCC(CNC(=O)COC2CCN(S(=O)(=O)c3ccccc3)C2)CC1 (stereo not drawn) [Example 573] |  |  | 14 | −4
11 | Cc1cc(C)c(S(=O)(=O)N(C)CCOCC(=O)NCCC2CCC(C(c3cccc(F)c3)N(C)C)CC2)c(C)c1 (stereo not drawn) [Example 587] |  |  | 16 | −14
12 | CN(C)C(c1cccc(F)c1)C1CCC(CCNC(=O)COCCC2CCN(S(=O)(=O)c3ccccc3)CC2)CC1 (stereo not drawn) [Example 543] |  |  | 15 | −31
13 | COc1cc(C)c(S(=O)(=O)N2CCC(OCC(=O)NCC3CCC(C(CCc4ccccc4)N(C)C)CC3)C2)c(C)c1 (stereo not drawn) [Example 565] |  |  | 104 | 102
14 | CCN(CCOCC(=O)NCCC1CCC(C(c2cccs2)N(C)C)CC1)S(=O)(=O)c1c(C)cc(OC)c(C)c1C (stereo not drawn) [Example 103, N-(2-(4-((dimethylamino)(thiophen-2-yl)methyl)cyclohexyl)ethyl)-2-(2-(N-ethyl-4-methoxy-2,3,6-trimethylphenylsulfonamido)ethoxy)acetamide] | 84 | 90 |  | 
15 | COc1ccc(S(=O)(=O)N2Cc3ccccc3CC2COCC(=O)NCC2CCC(C(c3cccs3)N(C)C)CC2)cc1 (stereo not drawn) [Example 7, N-((4-((dimethylamino)(thiophen-2-yl)methyl)cyclohexyl)methyl)-2-((2-(4-methoxyphenylsulfonyl)-1,2,3,4-tetrahydroisoquinolin-3-yl)methoxy)acetamide] | 27 | 47 |  | 
